Key:
eNOS promoter = assay: Activation of eNOS transcription (eNOS promoter-luciferase reporter gene assay); format: cell-based, human; conditions: 18 h incubation; for EC50: EC50 of transcription induction ratio vs compound concentration, determined graphically, human endothelial cell line stably transfected with eNOS promoter-luciferase construct; for maximal fold induction / TIR(max): maximum transcription induction ratio (luciferase activity with compound / solvent alone), human endothelial cell line with eNOS promoter-luciferase construct; for maximal fold induction: read-out: TIR(max)
Protocol: Measurement of Activation of eNOS Transcription
Activation of eNOS transcription was measured as described in detail in Li et al. “Activation of protein kinase C alpha and/or epsilon enhances transcription of the human endothelial nitric oxide synthase gene”, Mol. Pharmacol. 1998; 53: 630-637.
Briefly, a 3.5 kB long fragment 5′ of the starting codon of the eNOS gene was cloned, sequenced and cloned in firefly luciferase expression plasmids to monitor activation of the eNOS promoter by reporter gene activity. A human endothelial cell line stable transfected and expressing this promoter-reporter construct was used for compound testing. Cells were incubated for 18 h with compounds.
All compounds were dissolved in sterile DMSO. A final concentration of 0.5% DMSO in complete medium was allowed. Induction of reporter gene expression in these cells was measured using a standard luciferase assay system (Promega, Cat. No E150) according to the manufacturer's instructions. Luciferase induction in cells incubated with compounds were compared to those incubated with solvent alone. The ratio of both activities (transcription induction ratio, TIR) was plotted as a function of compound concentration. Typically, TIR values started at low concentrations at a ratio of 1, indicating no compound effect, and extended up to a maximum TIR value TIR(max) which indicates the increase of the eNOS transcription. EC50 values of transcription induction ratios as a function of compound concentration were determined graphically.

| EC50 (eNOS promoter) | melting point | TIR(max) (eNOS promoter) | Compound | maximal fold induction (eNOS promoter) |
| --- | --- | --- | --- | --- |
| 6000 nM | 156 °C |  | O=C(NC1CCCc2ccccc2C1O)c1ccc(F)cc1 (centres unmarked) [Compound 2, 4-FLUORO-N-(5-HYDROXY-6,7,8,9-TETRAHYDRO-5H-BENZOCYCLOHEPTEN-6-YL)-BENZAMIDE] | 2.2 |
| 20 nM | 165 °C |  | O=C(NC1CCCc2ccccc2C1)c1ccc(F)cc1 (centres unmarked) [Compound 1, 4-FLUORO-N-(6,7,8,9-TETRAHYDRO-5H-BENZOCYCLOHEPTEN-6-YL)-BENZAMIDE] | 3.3 |
| 75 nM | 206 °C |  | Cc1nc2ccc(C(=O)N[C@H]3CCCc4ccccc4C3)cc2[nH]1 [Compound 7, (S)-2-METHYL-3H-BENZOIMIDAZOLE-5-CARBOXYLIC ACID (6,7,8,9-TETRAHYDRO-5H-BENZOCYCLOHEPTEN-6-YL)-AMIDE] | 3.3 |
| 40 nM |  |  | O=C(N[C@H]1CCCc2ccccc2C1)c1ccc(OCC(F)(F)F)cc1 [Compound 125, (S)—N-(6,7,8,9-TETRAHYDRO-5H-BENZOCYCLOHEPTEN-6-YL)-4-(2,2,2-TRIFLUORO-ETHOXY)-BENZAMIDE] | 3 |
| 1800 nM |  |  | Cc1ncccc1C(=O)NC1CCCc2ccccc2C1 (single isomer, unassigned) [Compound 26, 2-METHYL-N-(6,7,8,9-TETRAHYDRO-5H-BENZOCYCLOHEPTEN-6-YL)-NICOTINAMIDE] | 3.1 |
| 2100 nM |  |  | Cc1ccc(C(=O)NC2CCCc3ccccc3C2)c(O)n1 (centres unmarked) [Compound 11, 2-HYDROXY-6-METHYL-N-(6,7,8,9-TETRAHYDRO-5H-BENZOCYCLOHEPTEN-6-YL)-NICOTINAMIDE] | 2 |
| 5000 nM |  |  | Cc1c(C(=O)NC2CCCc3ccccc3C2)cnn1-c1ccccc1 (single isomer, unassigned) [Compound 31, 5-METHYL-1-PHENYL-1H-PYRAZOLE-4-CARBOXYLIC ACID (6,7,8,9-TETRAHYDRO-5H-BENZOCYCLOHEPTEN-6-YL)-AMIDE] | 2.8 |
| 42 nM |  |  | Cc1ccc(C(=O)NC2CCCc3ccccc3C2)cn1 (single isomer, unassigned) [Compound 54, 6-METHYL-N-(6,7,8,9-TETRAHYDRO-5H-BENZOCYCLOHEPTEN-6-YL)-NICOTINAMIDE] | 3.2 |
| 3800 nM |  |  | CS(=O)(=O)Nc1cccnc1C(=O)NC1CCCc2ccccc2C1 (centres unmarked) [Compound 145, 3-METHANESULFONYLAMINO-PYRIDINE-2-CARBOXYLIC ACID (6,7,8,9-TETRAHYDRO-5H-BENZOCYCLOHEPTEN-6-YL)-AMIDE] | 1.6 |
| 136 nM |  |  | CN(C)c1ccc(C(=O)N[C@H]2CCCc3ccccc3C2)cn1 [Compound 117, (S)-6-DIMETHYLAMINO-N-(6,7,8,9-TETRAHYDRO-5H-BENZOCYCLOHEPTEN-6-YL)-NICOTINAMIDE] | 3 |
| 16000 nM |  |  | O=C(NC1CCCc2ccccc2C1)c1cnc(N2CCOCC2)nc1 (centres unmarked) [Compound 64, 2-MORPHOLIN-4-YL-PYRIMIDINE-5-CARBOXYLIC ACID (6,7,8,9-TETRAHYDRO-5H-BENZOCYCLOHEPTEN-6-YL)-AMIDE] | 3.1 |
| 2400 nM |  |  | Nc1ccnc(C(=O)NC2CCCc3ccccc3C2)c1 (centres unmarked) [Compound 146, 4-AMINO-PYRIDINE-2-CARBOXYLIC ACID (6,7,8,9-TETRAHYDRO-5H-BENZOCYCLOHEPTEN-6-YL)-AMIDE] | 2.9 |
| 128 nM |  |  | COCc1ccc(C(=O)N[C@H]2CCCc3ccccc3C2)cn1 [Compound 133, (S)-6-METHOXYMETHYL-N-(6,7,8,9-TETRAHYDRO-5H-BENZOCYCLOHEPTEN-6-YL)-NICOTINAMIDE] | 3.1 |
| 1800 nM |  |  | Cc1ncsc1C(=O)NC1CCCc2ccccc2C1 (centres unmarked) [Compound 109, 4-METHYL-THIAZOLE-5-CARBOXYLIC ACID (6,7,8,9-TETRAHYDRO-5H-BENZOCYCLOHEPTEN-6-YL)-AMIDE] | 2.8 |
| 230 nM |  |  | Cc1ccc(C(=O)N[C@H]2CCCc3ccccc3C2)cc1NS(C)(=O)=O [Compound 119, (S)-3-METHANESULFONYLAMINO-4-METHYL-N-(6,7,8,9-TETRAHYDRO-5H-BENZOCYCLOHEPTEN-6-YL)-BENZAMIDE] | 3 |
| 4800 nM |  |  | O=C(NC1CCCc2ccccc2C1)c1cccc(N2CCCCC2)c1 (centres unmarked) [Compound 106, 3-PIPERIDIN-1-YL-N-(6,7,8,9-TETRAHYDRO-5H-BENZOCYCLOHEPTEN-6-YL)-BENZAMIDE] | 2.5 |
| 19000 nM |  |  | Cc1nc(C)c(C(=O)NC2CCCc3ccccc3C2)o1 (centres unmarked) [Compound 58, 2,4-DIMETHYL-OXAZOLE-5-CARBOXYLIC ACID (6,7,8,9-TETRAHYDRO-5H-BENZOCYCLOHEPTEN-6-YL)-AMIDE] | 2.5 |
| 47 nM |  |  | Cc1cnc(C(=O)NC2CCCc3ccccc3C2)cn1 (single isomer, unassigned) [Compound 32, 5-METHYL-PYRAZINE-2-CARBOXYLIC ACID (6,7,8,9-TETRAHYDRO-5H-BENZOCYCLOHEPTEN-6-YL)-AMIDE] | 3 |
| 351 nM |  |  | O=C(N[C@H]1CCCc2ccccc2C1)c1ccc2nc[nH]c2c1 [Compound 126, (S)-3H-BENZOIMIDAZOLE-5-CARBOXYLIC ACID (6,7,8,9-TETRAHYDRO-5H-BENZOCYCLOHEPTEN-6-YL)-AMIDE] | 2.9 |
| 779 nM |  |  | COc1ccc(C(=O)NC2CCCc3ccccc3C2)c(OC)n1 (centres unmarked) [Compound 15, 2,6-DIMETHOXY-N-(6,7,8,9-TETRAHYDRO-5H-BENZOCYCLOHEPTEN-6-YL)-NICOTINAMIDE] | 3.1 |
| 168 nM |  | 3 | Cc1cc(C)c(C(=O)NC2CCCc3ccccc3C2)c(N)n1 (centres unmarked) [Compound 56, 2-AMINO-4,6-DIMETHYL-N-(6,7,8 9-TETRAHYDRO-5H-BENZOCYCLOHEPTEN-6-YL)-NICOTINAMIDE] |  |
| 71 nM |  |  | Cc1nc(N)c(C(=O)NC2CCCc3ccccc3C2)nc1C (centres unmarked) [Compound 72, 3-AMINO-5,6-DIMETHYL-PYRAZINE-2-CARBOXYLIC ACID (6,7,8,9-TETRAHYDRO-5H-BENZOCYCLOHEPTEN-6-YL)-AMIDE] | 3.1 |
| 28000 nM |  | 2.5 | O=C(NC1CCCc2ccccc2C1)c1nc(NCc2ccccc2)ccc1Cl (centres unmarked) [143 B] |  |
| 6000 nM |  |  | O=C(NC1CCCc2ccccc2C1)c1ccc(N2CCOCC2)nc1 (centres unmarked) [Compound 101, 6-MORPHOLIN-4-YL-N-(6,7,8,9-TETRAHYDRO-5H-BENZOCYCLOHEPTEN-6-YL)-NICOTINAMIDE] | 3.1 |
| 150 nM |  |  | CNc1cncc(C(=O)N[C@H]2CCCc3ccccc3C2)n1 [Compound 116, (S)-6-METHYLAMINO-PYRAZINE-2-CARBOXYLIC ACID (6,7,8,9-TETRAHYDRO-5H-BENZOCYCLOHEPTEN-6-YL)-AMIDE] | 2.9 |
| 60 nM |  |  | O=C(NC1CCCc2ccccc2C1)c1cnn(-c2ccccc2)c1C(F)(F)F (single isomer, unassigned) [Compound 34, 1-PHENYL-5-TRIFLUOROMETHYL-1H-PYRAZOLE-4-CARBOXYLIC ACID (6,7,8,9-TETRAHYDRO-5H-BENZOCYCLOHEPTEN-6-YL)-AMIDE] | 2.8 |
| 100 nM |  |  | Cc1nc(N(C)C)sc1C(=O)N[C@H]1CCCc2ccccc2C1 [Compound 129, (S)-2-DIMETHYLAMINO-4-METHYL-THIAZOLE-5-CARBOXYLIC ACID (6,7,8,9-TETRAHYDRO-5H-BENZOCYCLOHEPTEN-6-YL)-AMIDE] | 3.1 |
| 574 nM |  | 2.6 | CS(=O)(=O)Nc1cc(C(=O)NC2CCCc3ccccc3C2)ccc1Cl (centres unmarked) [Compound 98, 4-CHLORO-3-METHANESULFONYLAMIINO-N-(6,7,8,9-TETRAHYDRO-5H-BENZOCYCLOHEPTEN-6-YL)-BENZAMIDE] |  |
| 30 nM |  | 2.9 | Cc1cnc(C(=O)N[C@H]2CCCc3ccccc3C2)c(N)n1 [Compound 114, (S)-3-AMINO-5-METHYL-PYRAZINE-2-CARBOXYLIC ACID (6,7,8,9-TETRARYDRO-5H-BENZOCYCLOHEPTEN-6-YL)-AMIDE] |  |

| Compound | EC50 (eNOS promoter) | melting point | TIR(max) (eNOS promoter) | maximal fold induction (eNOS promoter) |
| --- | --- | --- | --- | --- |
| O=C(NC1CCCc2ccccc2C1)c1cnn(-c2ccccc2)c1C(F)(F)F (single isomer, unassigned) [Compound 35, 1-PHENYL-5-TRIFLUOROMETHYL-1H-PYRAZOLE-4-CARBOXYLIC ACID (6,7,8,9-TETRAHYDRO-5H-BENZOCYCLOHEPTEN-6-YL)-AMIDE] | 3300 nM |  | 3.5 |  |
| Cc1nc(C)c(C(=O)NC2CCCc3ccccc3C2)s1 (single isomer, unassigned) [Compound 29, 2,4-DIMETHYL-THIAZOLE-5-CARBOXYLIC ACID (6,7,8,9-TETRAHYDRO-5H-BENZOCYCLOHEPTEN-6-YL)-AMIDE] | 9600 nM |  | 3.4 |  |

Reference: US7709478B2, “Acylated 6,7,8,9-tetrahydro-5H-benzocycloheptenyl amines and their use as pharmaceutical agents” (sanofi-aventis Deutschland GmbH, priority 2001, dated 2010)
